The target of the experiment is T1, Calpain-1 catalytic subunit (Homo sapiens, UniProt P07384).
T1 sequence (P07384 whole entry): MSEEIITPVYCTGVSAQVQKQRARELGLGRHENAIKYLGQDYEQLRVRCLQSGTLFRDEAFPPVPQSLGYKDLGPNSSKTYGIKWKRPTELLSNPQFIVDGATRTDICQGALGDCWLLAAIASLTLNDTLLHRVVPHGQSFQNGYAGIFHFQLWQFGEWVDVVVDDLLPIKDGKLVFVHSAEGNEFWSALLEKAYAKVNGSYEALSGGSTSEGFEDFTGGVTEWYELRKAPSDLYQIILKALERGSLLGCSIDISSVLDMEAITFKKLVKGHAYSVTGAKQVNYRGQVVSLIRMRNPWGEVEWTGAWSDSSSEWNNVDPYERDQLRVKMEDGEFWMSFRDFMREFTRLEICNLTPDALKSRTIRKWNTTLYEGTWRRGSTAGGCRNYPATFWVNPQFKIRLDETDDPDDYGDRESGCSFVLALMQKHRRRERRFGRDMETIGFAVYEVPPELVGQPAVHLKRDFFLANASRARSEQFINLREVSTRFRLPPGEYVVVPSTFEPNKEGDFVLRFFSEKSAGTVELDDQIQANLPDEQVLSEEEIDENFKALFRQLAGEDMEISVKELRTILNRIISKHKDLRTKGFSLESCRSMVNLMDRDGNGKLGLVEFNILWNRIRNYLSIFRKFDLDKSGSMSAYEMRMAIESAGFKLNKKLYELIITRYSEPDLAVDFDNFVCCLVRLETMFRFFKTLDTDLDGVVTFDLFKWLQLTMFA
The experiment is described as follows: Inhibitory activity evaluated against recombinant human calpain 1.

Molecules are shown by their SMILES. Non-standard residues stand in square brackets, D forms with d. Residues, ends and D or L forms follow the SMILES beside them. *: point of attachment. Cha = N[C@@H](CC1CCCCC1)C(=O)O; Cbz = O=C(OCc1ccccc1)*

For the compound `CC(C)C[C@@H](C=O)NC(=O)[C@H](CC(C)C)NC(=O)[C@H](Cc1ccc(O)cc1)NC(=O)OCc1ccccc1` (Cbz-Tyr-Leu-Leu-aldehyde), the IC50 was 8 nM.
Take `CC(C)C[C@@H](C=O)NC(=O)[C@H](CC(C)C)NC(=O)OCC1c2ccccc2-c2ccccc21`: the IC50 was determined as 11 nM.
As for `CC(C)C[C@@H](C=O)NC(=O)[C@H](Cc1ccccc1)NC(=O)OCc1ccccc1` (Cbz-Phe-Leu-aldehyde), the IC50 came out at 230 nM.
With `CC(=O)N[C@@H](CC(C)C)C(=O)N[C@@H](CC(C)C)C(=O)N[C@H](C=O)CCCNC(=N)N`, the IC50 was determined as 72 nM.
`CC(C)C[C@H](NC(=O)OCc1ccccc1)C(=O)N[C@H](C=O)C(C)C` (Cbz-Leu-Val-aldehyde): the IC50 stood at 4 nM.
The result for `CC[C@H](C)[C@H](NC(=O)OCc1ccccc1)C(=O)N[C@H](C=O)CC(C)C` (Cbz-Ile-Leu-aldehyde) reads 41 nM; that for `CC(C)C[C@H](NC(=O)OCc1ccccc1)C(=O)N[C@H](C=O)CC1CCCCC1` (Cbz-Leu-[Cha]-aldehyde), 11 nM.
As to `CC(C)C[C@@H](C=O)NC(=O)[C@H](CC(C)C)NC(=O)c1ccccc1C(=O)O`, the IC50 was greater than 1000 nM.
The result for `CC(C)C[C@H](NC(=O)OCc1ccccc1)C(=O)N[C@H](CC=O)Cc1ccccc1` reads greater than 1000 nM; that for `CC(=O)N[C@@H](CC(C)C)C(=O)N[C@H](C=O)CC(C)C`, 130 nM.

One may read the IC50 as the point on the concentration scale where inhibition reaches its midpoint.

Values taken from ChEMBL document CHEMBL1130294, “Subsite requirements for peptide aldehyde inhibitors of human calpain I” (Bioorg Med Chem Lett, 1997).
